Assay results taken from ChEMBL document CHEMBL5696442, “Discovery of type II inhibitors of TGFβ-activated kinase 1 (TAK1) and mitogen-activated protein kinase kinase kinase kinase 2 (MAP4K2)” (J Med Chem, 2015).
Calls of active or inactive are those of the source. The calls are words filed in the database; no cut-off is given here.

Experiments:
[1] = target: T1, Dual specificity mitogen-activated protein kinase kinase 6 (Homo sapiens) (UniProt P52564); assay: Inhibition of MAP2K6 ACT labeling site in human Huh-7 cell lysate at 1 uM by KiNativ Profiling analysis relative to control; type: subcellular
T1 sequence (whole entry): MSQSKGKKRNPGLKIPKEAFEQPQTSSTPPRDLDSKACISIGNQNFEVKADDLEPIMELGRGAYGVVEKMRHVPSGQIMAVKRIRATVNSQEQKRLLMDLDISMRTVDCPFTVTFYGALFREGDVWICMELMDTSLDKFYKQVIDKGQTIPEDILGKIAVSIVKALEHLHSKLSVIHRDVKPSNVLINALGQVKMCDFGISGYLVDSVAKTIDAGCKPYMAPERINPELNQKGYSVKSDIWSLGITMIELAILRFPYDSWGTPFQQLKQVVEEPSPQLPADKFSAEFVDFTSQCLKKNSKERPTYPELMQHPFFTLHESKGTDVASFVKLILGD

[2] = target: MAP/microtubule affinity-regulating kinase 3 (Homo sapiens) (UniProt P27448); assay: Inhibition of MARK3 Lys1 labeling site in human Huh-7 cell lysate at 1 uM by KiNativ Profiling analysis relative to control; type: subcellular
Chain of MAP/microtubule affinity-regulating kinase 3 (Homo sapiens) (P27448 whole entry, looked up): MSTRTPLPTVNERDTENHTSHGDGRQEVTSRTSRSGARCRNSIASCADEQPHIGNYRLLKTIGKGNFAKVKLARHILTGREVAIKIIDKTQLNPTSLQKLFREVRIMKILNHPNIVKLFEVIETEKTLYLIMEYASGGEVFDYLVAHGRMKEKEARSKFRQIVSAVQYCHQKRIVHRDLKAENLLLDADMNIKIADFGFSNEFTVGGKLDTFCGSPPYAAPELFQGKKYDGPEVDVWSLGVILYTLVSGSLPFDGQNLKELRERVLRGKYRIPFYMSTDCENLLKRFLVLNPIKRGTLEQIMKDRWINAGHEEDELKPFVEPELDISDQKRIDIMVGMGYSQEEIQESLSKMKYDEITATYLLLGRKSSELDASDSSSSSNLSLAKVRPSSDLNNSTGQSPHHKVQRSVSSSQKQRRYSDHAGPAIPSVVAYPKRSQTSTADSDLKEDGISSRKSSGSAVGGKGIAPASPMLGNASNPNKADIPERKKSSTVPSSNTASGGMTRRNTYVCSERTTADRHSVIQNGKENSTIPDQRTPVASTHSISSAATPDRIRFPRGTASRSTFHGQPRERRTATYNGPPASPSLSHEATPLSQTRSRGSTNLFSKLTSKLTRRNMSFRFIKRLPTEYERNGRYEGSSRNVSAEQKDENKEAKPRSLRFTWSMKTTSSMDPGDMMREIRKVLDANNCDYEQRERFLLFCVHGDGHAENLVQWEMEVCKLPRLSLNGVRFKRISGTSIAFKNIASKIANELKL

[3] = target: Cyclin-dependent kinase 18 (Homo sapiens) (UniProt Q07002); assay: Inhibition of PCTAIRE3 Lys1 labeling site in human Huh-7 cells at 1 uM by KiNativ Profiling analysis relative to control; type: cell-based
Chain of Cyclin-dependent kinase 18 (Homo sapiens) (Q07002 whole entry): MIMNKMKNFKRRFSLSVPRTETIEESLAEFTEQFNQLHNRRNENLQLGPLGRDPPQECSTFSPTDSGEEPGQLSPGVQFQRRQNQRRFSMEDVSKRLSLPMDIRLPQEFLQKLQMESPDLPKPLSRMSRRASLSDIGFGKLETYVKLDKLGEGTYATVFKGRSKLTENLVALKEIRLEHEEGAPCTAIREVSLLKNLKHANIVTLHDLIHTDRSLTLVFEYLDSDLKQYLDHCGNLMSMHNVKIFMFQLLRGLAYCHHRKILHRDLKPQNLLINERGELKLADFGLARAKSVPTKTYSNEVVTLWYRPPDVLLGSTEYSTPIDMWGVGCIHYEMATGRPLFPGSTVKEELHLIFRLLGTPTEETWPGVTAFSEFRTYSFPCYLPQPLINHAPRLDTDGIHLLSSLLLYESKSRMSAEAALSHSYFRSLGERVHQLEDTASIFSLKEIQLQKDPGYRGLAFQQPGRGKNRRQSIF

[4] = target: PKC alpha and beta-2 (Homo sapiens) (UniProt P17252+P05771); assay: Inhibition of PKCalpha/beta K2 labeling site in human Huh-7 cells at 10 uM by KiNativ Profiling analysis relative to control; type: cell-based
[5] = target: Ribosomal protein S6 kinase alpha-1 (Homo sapiens) (UniProt Q15418); assay: Inhibition of RSK1 Protein Kinase Domain in human A-375 cells at 5 uM by KiNativ Profiling analysis relative to control; type: cell-based
Chain of Ribosomal protein S6 kinase alpha-1 (Homo sapiens) (Q15418 whole entry, the tested form may be a part): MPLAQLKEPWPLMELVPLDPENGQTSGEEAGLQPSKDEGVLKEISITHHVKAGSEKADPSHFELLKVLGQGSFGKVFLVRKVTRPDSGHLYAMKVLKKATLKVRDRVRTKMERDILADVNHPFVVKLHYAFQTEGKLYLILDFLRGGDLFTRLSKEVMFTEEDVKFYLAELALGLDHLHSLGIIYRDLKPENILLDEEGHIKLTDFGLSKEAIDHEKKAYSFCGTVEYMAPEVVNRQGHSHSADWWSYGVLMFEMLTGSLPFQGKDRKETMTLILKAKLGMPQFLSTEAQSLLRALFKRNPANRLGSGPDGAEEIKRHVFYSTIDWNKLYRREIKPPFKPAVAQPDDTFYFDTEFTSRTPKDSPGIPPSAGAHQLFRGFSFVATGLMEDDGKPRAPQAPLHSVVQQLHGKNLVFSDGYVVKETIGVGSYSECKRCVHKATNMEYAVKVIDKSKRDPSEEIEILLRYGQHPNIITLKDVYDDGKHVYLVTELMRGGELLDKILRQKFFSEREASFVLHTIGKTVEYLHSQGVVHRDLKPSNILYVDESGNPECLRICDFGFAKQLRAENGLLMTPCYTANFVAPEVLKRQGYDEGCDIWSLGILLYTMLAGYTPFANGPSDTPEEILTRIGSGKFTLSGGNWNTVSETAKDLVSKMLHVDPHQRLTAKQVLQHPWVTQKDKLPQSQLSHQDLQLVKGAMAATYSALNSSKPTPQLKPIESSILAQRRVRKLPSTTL

[6] = target: T1, Dual specificity mitogen-activated protein kinase kinase 6 (Homo sapiens); assay: Inhibition of MAP2K6 K1 labeling site in human Huh-7 cells at 1 uM by KiNativ Profiling analysis relative to control; type: cell-based
[7] = target: Serine/threonine-protein kinase 16 (Homo sapiens) (UniProt O75716); assay: Inhibition of MPSK1 K2 labeling site in human Huh-7 cells at 1 uM by KiNativ Profiling analysis relative to control; type: cell-based
Chain of Serine/threonine-protein kinase 16 (Homo sapiens) (O75716 whole entry): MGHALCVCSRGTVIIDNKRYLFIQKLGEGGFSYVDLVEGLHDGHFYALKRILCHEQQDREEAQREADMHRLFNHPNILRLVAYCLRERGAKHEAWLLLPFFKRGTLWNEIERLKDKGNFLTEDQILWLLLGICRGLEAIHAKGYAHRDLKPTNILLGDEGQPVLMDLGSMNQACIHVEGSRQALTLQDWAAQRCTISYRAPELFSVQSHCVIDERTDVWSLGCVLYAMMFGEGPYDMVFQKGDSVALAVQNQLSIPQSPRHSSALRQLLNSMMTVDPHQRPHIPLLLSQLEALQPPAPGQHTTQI

[8] = target: Interferon-induced, double-stranded RNA-activated protein kinase (Homo sapiens) (UniProt P19525); assay: Inhibition of PKR K2 labeling site in human Huh-7 cells at 10 uM by KiNativ Profiling analysis relative to control; type: cell-based
[9] = target: TGF-beta receptor type-2 (Homo sapiens) (UniProt P37173); assay: Inhibition of TGFBR2 (unknown origin) at 10 uM by Ambit Kinomescan binding assay
[10] = target: Casein kinase I isoform gamma-3 (Homo sapiens) (UniProt Q9Y6M4); assay: Inhibition of CSNK1G3 (unknown origin) at 10 uM by Ambit Kinomescan binding assay
Chain of Casein kinase I isoform gamma-3 (Homo sapiens) (Q9Y6M4 whole entry, looked up, canonical isoform): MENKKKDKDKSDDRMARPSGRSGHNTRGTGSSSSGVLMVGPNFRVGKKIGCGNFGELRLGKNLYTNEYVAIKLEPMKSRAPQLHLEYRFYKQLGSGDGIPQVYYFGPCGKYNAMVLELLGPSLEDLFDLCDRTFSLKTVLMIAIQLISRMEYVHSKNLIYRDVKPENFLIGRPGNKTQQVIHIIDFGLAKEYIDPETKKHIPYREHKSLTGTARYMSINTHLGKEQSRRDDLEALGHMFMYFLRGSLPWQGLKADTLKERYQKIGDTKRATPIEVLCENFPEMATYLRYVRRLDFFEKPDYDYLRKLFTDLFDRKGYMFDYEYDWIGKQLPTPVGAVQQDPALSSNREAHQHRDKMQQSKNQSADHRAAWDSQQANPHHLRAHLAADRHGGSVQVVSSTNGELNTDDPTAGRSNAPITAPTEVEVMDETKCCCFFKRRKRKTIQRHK

[11] = target: T2, Mitogen-activated protein kinase kinase kinase 2 (Homo sapiens) (UniProt Q9Y2U5); assay: Inhibition of MAP3K2 Lys1 labeling site harbouring ELAVKQVQFDPDSPETSKEVNALECEIQLLK in human A-375 cells at 0.5 uM by KiNativ Profiling analysis relative to control; type: cell-based
T2 sequence (whole entry): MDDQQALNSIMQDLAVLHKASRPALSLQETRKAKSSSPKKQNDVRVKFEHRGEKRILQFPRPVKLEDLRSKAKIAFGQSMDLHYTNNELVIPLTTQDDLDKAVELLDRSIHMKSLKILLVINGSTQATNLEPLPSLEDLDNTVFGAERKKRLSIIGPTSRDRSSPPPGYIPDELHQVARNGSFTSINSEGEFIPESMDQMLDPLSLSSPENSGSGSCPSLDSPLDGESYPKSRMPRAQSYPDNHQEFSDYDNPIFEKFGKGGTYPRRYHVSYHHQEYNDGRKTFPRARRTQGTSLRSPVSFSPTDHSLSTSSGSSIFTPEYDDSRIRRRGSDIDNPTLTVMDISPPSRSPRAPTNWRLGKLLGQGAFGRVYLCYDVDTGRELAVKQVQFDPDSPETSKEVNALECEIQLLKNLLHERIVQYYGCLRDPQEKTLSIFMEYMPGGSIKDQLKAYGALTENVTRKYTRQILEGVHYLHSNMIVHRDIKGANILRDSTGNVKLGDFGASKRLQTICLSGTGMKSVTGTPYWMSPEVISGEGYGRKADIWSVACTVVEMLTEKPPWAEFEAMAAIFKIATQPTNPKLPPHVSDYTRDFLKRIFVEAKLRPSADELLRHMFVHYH

[12] = target: Ribosomal protein S6 kinase alpha-6 (Homo sapiens) (UniProt Q9UK32); assay: Inhibition of N-terminal RPS6KA6 kinase domain 1 (unknown origin) at 10 uM by Ambit Kinomescan binding assay
[13] = target: Serine/threonine-protein kinase 38-like (Homo sapiens) (UniProt Q9Y2H1); assay: Inhibition of NDR2 ACT labeling site in human A-375 cells at 0.5 uM by KiNativ Profiling analysis relative to control; type: cell-based
[14] = target: Cyclin-dependent kinase 2 (Homo sapiens) (UniProt P24941); assay: Inhibition of CDK2 K2 labeling site in human Huh-7 cells at 1 uM by KiNativ Profiling analysis relative to control; type: cell-based
[15] = target: Tyrosine-protein kinase Fyn (Homo sapiens) (UniProt P06241); assay: Inhibition of FYN (unknown origin) at 10 uM by Ambit Kinomescan binding assay relative to control; values are per cent of control
Chain of Tyrosine-protein kinase Fyn (Homo sapiens) (P06241 2-537 limits assumed): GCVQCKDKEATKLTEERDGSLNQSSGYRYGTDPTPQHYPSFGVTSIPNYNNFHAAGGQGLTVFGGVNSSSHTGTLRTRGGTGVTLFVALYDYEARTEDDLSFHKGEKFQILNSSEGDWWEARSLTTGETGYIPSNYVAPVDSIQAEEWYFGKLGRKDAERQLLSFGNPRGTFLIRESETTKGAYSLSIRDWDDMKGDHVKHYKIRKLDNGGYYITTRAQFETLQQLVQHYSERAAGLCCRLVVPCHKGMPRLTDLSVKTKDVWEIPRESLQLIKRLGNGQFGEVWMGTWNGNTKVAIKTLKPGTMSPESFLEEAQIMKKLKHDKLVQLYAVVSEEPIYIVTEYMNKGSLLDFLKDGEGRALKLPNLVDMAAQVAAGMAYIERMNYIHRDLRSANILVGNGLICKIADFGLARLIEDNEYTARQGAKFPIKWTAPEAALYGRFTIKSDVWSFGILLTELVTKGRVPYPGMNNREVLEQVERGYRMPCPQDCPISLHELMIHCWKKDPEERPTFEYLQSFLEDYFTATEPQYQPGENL

[16] = target: Serine/threonine-protein kinase 35 (Homo sapiens) (UniProt Q8TDR2); assay: Inhibition of STK35 (unknown origin) at 10 uM by Ambit Kinomescan binding assay relative to control; values are per cent of control
[17] = target: 5'-AMP-activated protein kinase catalytic subunit alpha-2 (Homo sapiens) (UniProt P54646); assay: Inhibition of AMPK-alpha2 (unknown origin) at 1 uM by Ambit Kinomescan binding assay relative to control
[18] = target: Phosphatidylinositol 4-kinase beta (Homo sapiens) (UniProt Q9UBF8); assay: Inhibition of PIK4CB (unknown origin) at 1 uM by Ambit Kinomescan binding assay relative to control; values are per cent of control
Chain of Phosphatidylinositol 4-kinase beta (Homo sapiens) (Q9UBF8 2-816 limits assumed): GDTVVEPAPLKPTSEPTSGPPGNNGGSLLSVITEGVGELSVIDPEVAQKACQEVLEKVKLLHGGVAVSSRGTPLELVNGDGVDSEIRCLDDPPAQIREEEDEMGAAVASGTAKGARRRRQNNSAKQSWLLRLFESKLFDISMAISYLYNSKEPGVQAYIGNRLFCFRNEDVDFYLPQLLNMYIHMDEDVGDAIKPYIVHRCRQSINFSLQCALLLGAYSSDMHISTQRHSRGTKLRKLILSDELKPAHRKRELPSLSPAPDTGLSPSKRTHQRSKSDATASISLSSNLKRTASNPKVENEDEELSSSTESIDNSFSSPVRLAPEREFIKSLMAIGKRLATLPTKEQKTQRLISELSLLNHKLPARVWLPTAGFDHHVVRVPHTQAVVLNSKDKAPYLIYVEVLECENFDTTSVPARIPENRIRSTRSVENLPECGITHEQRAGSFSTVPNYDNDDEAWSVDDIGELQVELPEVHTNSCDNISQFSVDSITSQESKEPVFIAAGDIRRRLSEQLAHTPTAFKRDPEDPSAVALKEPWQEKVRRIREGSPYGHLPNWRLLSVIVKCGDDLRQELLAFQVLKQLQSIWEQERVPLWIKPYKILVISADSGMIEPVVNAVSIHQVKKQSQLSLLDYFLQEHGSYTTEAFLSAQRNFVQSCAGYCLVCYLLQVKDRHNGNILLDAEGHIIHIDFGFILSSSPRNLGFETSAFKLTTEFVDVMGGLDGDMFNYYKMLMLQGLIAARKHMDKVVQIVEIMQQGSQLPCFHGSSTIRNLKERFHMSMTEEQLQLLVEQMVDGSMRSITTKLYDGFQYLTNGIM

[19] = target: Serine/threonine-protein kinase Nek2 (Homo sapiens) (UniProt P51955); assay: Inhibition of NEK2 (unknown origin) at 1 uM by Ambit Kinomescan binding assay relative to control; values are per cent of control
[20] = target: Mitogen-activated protein kinase 7 (Homo sapiens) (UniProt Q13164); assay: Inhibition of ERK5 (unknown origin) at 1 uM by Ambit Kinomescan binding assay relative to control
Chain of Mitogen-activated protein kinase 7 (Homo sapiens) (Q13164 2-816 limits assumed): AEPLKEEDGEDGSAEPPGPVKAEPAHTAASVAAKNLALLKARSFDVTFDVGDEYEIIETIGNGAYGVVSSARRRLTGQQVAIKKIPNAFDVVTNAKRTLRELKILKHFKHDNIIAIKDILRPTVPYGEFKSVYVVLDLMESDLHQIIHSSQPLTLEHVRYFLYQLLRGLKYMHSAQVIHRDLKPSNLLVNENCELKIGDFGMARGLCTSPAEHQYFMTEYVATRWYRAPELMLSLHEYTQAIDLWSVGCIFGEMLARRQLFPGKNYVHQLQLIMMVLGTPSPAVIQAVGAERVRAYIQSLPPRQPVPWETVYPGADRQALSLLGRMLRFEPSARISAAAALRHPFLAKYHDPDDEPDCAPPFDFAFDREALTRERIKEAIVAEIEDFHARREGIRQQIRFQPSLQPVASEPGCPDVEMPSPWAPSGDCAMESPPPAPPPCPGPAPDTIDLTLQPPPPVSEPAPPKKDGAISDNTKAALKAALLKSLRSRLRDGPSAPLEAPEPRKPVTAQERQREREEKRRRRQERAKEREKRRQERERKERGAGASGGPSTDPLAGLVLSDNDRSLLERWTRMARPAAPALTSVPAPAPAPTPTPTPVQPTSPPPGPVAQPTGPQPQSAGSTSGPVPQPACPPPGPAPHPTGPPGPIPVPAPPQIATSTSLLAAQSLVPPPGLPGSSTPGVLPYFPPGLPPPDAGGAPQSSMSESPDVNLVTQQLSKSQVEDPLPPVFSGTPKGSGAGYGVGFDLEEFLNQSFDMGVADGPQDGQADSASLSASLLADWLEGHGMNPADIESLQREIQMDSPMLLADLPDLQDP

[21] = target: Serine/threonine-protein kinase 16 (Homo sapiens) (UniProt O75716); assay: Inhibition of MPSK1 Lys2 labeling site in human A-375 cells at 0.05 uM by KiNativ Profiling analysis relative to control; type: cell-based
[22] = target: Atypical kinase COQ8A, mitochondrial (Homo sapiens) (UniProt Q8NI60); assay: Inhibition of ADCK3 (unknown origin) at 1 uM by Ambit Kinomescan binding assay relative to control

How did the inhibition [1] turn out when `CNc1cc(Oc2cc(C(=O)Nc3cc(N4CCN(C)CC4)cc(C(F)(F)F)c3)ccc2C)ncn1` was run?
The inhibition was -1.2%.

What about the inhibition [2] of the same compound?
The inhibition was 13.8%.

What about the inhibition [3] of the same compound?
The inhibition was 12%.

How did the inhibition [4] turn out when `CCN1CCN(Cc2ccc(NC(=O)c3ccc(C)c(Oc4ccnc5[nH]ccc45)c3)cc2C(F)(F)F)CC1` was run?
Its inhibition is 1.3%.

And the inhibition [5]?
Its inhibition is 5.8%.

What about the inhibition [6] of the same compound?
The inhibition was 16.3%.

And the inhibition [7]?
Its inhibition is 6.7%.

And the inhibition [8]?
Its inhibition is 7.9%.

What about the inhibition [9] of the same compound?
Its inhibition is “inactive”.

And the inhibition [10]?
Its inhibition is “inactive”.

What about the inhibition [11] of the same compound?
The inhibition was 16.9%.

And the inhibition [12]?
Its inhibition is “inactive”.

And the inhibition [13]?
The inhibition was -4.5%.

What about the inhibition [14] of the same compound?
The inhibition was 5%.

What about the percent of control [15] of the same compound?
Its percent of control is 1.6%.

And the residual activity [16]?
Its residual activity is 3%.

With `CCN1CCN(Cc2ccc(NC(=O)c3ccc(C)c(/C=C/c4cnc5[nH]ccc5c4OC)c3)cc2C(F)(F)F)CC1` as the compound, how does the inhibition [17] read?
The inhibition was 61%.

And the residual activity [18]?
Its residual activity is 100%.

What about the residual activity [19] of the same compound?
Its residual activity is 100%.

And the inhibition [20]?
Its inhibition is 83%.

What about the inhibition [21] of the same compound?
Its inhibition is 14.1%.

And the inhibition [22]?
Its inhibition is 100%.
